Results published in article PMC10578352, “Identification of a Protein Arginine Methyltransferase 7 (PRMT7)/Protein Arginine Methyltransferase 9 (PRMT9) Inhibitor” (Journal of Medicinal Chemistry, 2023).

Tests used:
PRMT1 = target: T1, PRMT1 (Homo sapiens, UniProt Q99873); experiment: HotSpot radioisotope-based filter assay, PRMT1; assay type: biochemical; conditions: Figure 2; from IC50 values of ref 31
T1 construct: PRMT1 (residues 2–371, C-terminus); with an N-terminal GST-tag; GST (N); purchased Reaction Biology Corporation
Description: Then, ^3H-SAM (final concentration of 1 μM) was delivered into the reaction mixture to initiate the reaction. After incubation for 60 min at 30 °C, the reaction mixture was delivered to filter-paper for detection (as assessed by scintillation). Data were analyzed using Excel and GraphPad Prism 6.0 software (GraphPad Software Inc., San Diego, CA) for IC50 curve fits using sigmoidal dose vs response - variable slope (four parameters) equations.

PRMT7 = target: T2, PRMT7 (Homo sapiens, UniProt Q9NVM4); parameters: method as in PMID 35482954; conditions: heatmap of Figure 2; cited from earlier work
T2 construct: PRMT7 (residues 2–692, C-terminus); with an N-terminal His-tag; His (N); purchased Reaction Biology Corporation
T2 sequence (Q9NVM4 2-692): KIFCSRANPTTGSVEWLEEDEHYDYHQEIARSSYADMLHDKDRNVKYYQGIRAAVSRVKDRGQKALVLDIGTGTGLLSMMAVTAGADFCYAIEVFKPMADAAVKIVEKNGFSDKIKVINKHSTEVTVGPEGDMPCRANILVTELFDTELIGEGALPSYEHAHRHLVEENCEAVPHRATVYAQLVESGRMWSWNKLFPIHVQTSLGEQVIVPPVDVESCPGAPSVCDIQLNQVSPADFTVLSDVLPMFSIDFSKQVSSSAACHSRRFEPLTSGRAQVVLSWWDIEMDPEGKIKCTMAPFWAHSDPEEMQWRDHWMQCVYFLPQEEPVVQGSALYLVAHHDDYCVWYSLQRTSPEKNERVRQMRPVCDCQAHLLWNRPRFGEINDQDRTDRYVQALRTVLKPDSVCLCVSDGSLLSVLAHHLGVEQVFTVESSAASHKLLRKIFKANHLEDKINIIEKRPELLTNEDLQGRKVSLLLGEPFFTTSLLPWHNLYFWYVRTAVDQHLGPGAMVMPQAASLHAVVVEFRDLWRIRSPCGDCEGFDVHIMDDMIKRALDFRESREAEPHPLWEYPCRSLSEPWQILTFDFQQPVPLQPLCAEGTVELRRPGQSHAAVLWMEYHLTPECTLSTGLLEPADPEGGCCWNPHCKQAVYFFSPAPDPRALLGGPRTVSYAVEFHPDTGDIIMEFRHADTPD

G9a/KMT1C = target: T3, G9a/KMT1C (Homo sapiens, UniProt Q96KQ7); experiment: HotSpot KMT activity assay, G9a; assay type: biochemical; conditions: read-out: % G9a residual activity
T3 construct: the human recombinant G9a (residues 913–1193, C-terminus); with an N-terminal His-tag; His (N); purchased Reaction Biology Corporation
Description: (§1) Then, ^3H-SAM (final concentration 1 μM) was delivered into the reaction mixture to initiate the reaction. After incubation for 60 min at 30 °C, the reaction mixture was delivered to filter paper for detection (as assessed by scintillation). […] No inhibitor control (DMSO) was considered as showing 100% enzyme activity. Data were analyzed using Excel and GraphPad Prism 6.0 software (GraphPad Software Inc., San Diego, CA). Values obtained for each compound are mean ± SD determined for two separate experiments.

[1] = target: T4, EZH2/KMT6 (5 component complex) (Homo sapiens, UniProt Q15910); experiment: HotSpot KMT activity assay, EZH2; assay type: biochemical; conditions: read-out: % EZH2 residual activity
T4 construct: including EZH2 residues 2–746, AEBP2 2–517, EED 2–441; His (N); purchased Reaction Biology Corporation
Description: as §1

T4 sequence (Q15910 2-746): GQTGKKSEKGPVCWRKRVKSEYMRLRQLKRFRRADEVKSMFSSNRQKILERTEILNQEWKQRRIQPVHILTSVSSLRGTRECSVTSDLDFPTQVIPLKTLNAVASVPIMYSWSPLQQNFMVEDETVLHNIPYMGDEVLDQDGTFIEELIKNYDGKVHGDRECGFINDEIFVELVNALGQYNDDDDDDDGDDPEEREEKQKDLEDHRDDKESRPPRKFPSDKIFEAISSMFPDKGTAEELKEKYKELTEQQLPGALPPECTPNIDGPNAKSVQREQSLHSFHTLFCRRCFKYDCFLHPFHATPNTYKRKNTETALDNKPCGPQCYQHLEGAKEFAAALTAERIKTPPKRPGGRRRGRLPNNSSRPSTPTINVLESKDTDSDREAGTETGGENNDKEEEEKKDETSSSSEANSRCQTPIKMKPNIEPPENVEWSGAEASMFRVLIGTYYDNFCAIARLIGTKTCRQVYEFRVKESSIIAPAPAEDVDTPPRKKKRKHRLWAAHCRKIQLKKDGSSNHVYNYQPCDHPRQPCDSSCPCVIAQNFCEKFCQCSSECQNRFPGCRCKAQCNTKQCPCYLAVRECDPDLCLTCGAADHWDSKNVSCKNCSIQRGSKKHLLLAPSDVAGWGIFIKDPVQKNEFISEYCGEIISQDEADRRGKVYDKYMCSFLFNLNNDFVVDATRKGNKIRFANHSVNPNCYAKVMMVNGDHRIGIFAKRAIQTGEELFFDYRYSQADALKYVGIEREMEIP
T4 sequence (Q6ZN18 2-517 partner limits assumed): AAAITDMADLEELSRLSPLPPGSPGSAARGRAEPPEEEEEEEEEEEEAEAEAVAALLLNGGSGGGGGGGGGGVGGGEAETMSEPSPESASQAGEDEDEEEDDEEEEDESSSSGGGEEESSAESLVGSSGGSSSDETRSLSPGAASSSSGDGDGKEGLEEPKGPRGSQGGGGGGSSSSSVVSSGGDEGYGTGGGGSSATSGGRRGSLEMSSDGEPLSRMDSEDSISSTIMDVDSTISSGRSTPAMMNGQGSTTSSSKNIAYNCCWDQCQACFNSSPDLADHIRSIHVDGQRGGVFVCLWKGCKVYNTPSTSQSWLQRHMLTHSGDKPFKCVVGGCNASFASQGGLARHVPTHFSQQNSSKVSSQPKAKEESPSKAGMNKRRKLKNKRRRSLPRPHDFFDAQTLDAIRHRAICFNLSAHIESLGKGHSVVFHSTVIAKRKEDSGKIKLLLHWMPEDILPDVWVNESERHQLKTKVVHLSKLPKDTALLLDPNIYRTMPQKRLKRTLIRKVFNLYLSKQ
T4 sequence (O75530 2-441 partner limits assumed): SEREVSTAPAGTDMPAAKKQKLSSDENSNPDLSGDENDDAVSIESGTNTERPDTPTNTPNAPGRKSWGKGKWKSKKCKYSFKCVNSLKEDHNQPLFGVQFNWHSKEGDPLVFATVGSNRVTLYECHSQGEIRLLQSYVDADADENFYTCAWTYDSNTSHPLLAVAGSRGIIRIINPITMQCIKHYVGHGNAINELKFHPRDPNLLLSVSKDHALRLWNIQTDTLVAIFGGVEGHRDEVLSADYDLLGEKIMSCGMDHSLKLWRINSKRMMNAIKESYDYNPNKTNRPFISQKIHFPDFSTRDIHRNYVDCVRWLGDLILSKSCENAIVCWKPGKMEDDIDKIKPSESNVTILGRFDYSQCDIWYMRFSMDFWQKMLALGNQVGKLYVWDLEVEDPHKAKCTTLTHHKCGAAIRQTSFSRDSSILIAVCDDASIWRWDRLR
T4 sequence (Q09028 2-425 partner limits assumed): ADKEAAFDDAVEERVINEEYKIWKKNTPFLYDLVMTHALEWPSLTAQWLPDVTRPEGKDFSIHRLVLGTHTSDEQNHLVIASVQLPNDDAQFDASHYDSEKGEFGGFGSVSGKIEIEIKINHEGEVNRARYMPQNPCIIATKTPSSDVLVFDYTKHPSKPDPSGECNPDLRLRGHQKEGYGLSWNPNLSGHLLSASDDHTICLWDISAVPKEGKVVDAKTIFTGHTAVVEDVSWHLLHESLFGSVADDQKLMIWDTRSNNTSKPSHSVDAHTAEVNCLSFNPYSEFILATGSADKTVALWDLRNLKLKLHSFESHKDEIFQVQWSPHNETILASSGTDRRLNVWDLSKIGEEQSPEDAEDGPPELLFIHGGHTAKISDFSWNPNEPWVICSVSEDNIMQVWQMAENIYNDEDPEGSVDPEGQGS
T4 sequence (Q15022 2-739 partner limits assumed): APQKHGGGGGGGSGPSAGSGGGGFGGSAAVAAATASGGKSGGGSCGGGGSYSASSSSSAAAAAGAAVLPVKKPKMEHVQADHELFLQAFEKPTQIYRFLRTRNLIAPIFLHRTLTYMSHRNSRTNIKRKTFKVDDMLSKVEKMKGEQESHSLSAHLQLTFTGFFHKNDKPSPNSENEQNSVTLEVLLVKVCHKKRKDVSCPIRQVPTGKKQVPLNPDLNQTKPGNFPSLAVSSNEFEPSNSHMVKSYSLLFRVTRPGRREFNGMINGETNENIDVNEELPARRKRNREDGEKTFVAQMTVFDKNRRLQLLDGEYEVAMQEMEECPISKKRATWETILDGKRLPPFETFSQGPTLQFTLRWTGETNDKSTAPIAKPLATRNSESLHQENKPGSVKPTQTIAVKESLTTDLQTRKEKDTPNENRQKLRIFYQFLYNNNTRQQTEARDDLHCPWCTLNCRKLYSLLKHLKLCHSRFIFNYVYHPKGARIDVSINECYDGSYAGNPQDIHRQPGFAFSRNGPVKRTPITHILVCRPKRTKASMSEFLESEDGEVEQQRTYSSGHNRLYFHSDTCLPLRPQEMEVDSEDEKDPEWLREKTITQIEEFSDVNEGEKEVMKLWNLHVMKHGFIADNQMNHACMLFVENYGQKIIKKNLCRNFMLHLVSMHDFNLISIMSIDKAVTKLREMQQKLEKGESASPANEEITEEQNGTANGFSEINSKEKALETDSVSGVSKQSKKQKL
T3 sequence (Q96KQ7 913-1193): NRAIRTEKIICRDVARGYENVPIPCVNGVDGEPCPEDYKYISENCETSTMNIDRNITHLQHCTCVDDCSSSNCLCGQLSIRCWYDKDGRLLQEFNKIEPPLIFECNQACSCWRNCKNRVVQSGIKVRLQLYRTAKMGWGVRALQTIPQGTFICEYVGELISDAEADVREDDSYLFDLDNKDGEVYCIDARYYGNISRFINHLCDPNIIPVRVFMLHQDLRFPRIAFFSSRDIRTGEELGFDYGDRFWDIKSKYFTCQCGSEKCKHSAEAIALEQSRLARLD
T1 sequence (Q99873 2-371): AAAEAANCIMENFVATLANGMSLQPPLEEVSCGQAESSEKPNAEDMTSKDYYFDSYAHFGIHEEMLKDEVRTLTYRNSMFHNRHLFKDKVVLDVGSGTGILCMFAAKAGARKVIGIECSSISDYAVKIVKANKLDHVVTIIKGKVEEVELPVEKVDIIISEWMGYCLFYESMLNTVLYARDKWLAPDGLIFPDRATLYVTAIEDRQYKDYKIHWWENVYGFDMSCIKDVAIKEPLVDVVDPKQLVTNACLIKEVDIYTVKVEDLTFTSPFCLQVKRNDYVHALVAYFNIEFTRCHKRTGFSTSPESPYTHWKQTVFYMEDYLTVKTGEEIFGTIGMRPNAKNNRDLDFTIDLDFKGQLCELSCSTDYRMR

## COC(=O)c1cc(O)c2cc(NC(=O)NCCCCCNC(=N)NC[C@H]3O[C@@H](n4cnc5c(N)ncnc54)[C@H](O)[C@@H]3O)ccc2c1 [1c]
PRMT1
  selectivity index for PRMT7 over PRMT1: 38 fold

## COC(=O)c1cc(O)c2cc(NC(=O)NCCCNC(=N)NC[C@H]3O[C@@H](n4cnc5c(N)ncnc54)[C@H](O)[C@@H]3O)ccc2c1 [1a]
PRMT7
  IC50: 0.315 µM

## COC(=O)c1cc(O)c2cc(NC(=O)NCCCNC(=N)NC[C@H]3O[C@@H](n4cnc5c(N)ncnc54)[C@H](O)[C@@H]3O)cc(C(F)(F)F)c2c1 [1j, Methyl 6-(3-(3-(3-(((2R,3S,4R,5R)-5-(6-Amino-9H-purin-9-yl)-3,4-dihydroxytetrahydrofuran-2-yl)methyl)guanidino)propyl)ureido)-4-hydroxy-8-(trifluoromethyl)-2-naphthoate]
G9a/KMT1C; 10 μM
  remaining activity at 10 µM: 111 ± 4.3%
G9a/KMT1C; 100 μM
  remaining activity at 100 µM: 70.93 ± 0.31%
[1]; 10 μM
  remaining activity at 10 µM: 104.5 ± 0.99%
[1]; 100 μM
  remaining activity at 100 µM: 77.6 ± 3.43%
